Values quoted from earlier work, collected in EP0331593A1, “Process for the preparation of hydroxybenzaldehydes by hydrocarbonylation” (RHONE-POULENC CHIMIE, priority 1988, dated 1989).
Where two headings read alike, the source gives them in different places.

Assays:
[1] = in water, generally 25°C
[2] = phosphine

Structure (SMILES)	pKa * (pka del'acide conjugué de l'amine tertiaire) ([1]; Tableau I)	pKa * (pka de l'acide conjugé de l'amine tertiaire) ([1]; Tableau II)	pKa à 25°C [2]	pKa * (pka del'acide conjugué de l'amine tertiaire) ([1]; Tableau III)	pKa * (pka de l'acide conjugé de l'amine tertiaire) ([1]; Tableau IV)
Cc1cccc(C)n1 [Diméthyl-2,6 Pyridine]	6,73	6,73			
Cc1cccc(P(c2cccc(C)c2)c2cccc(C)c2)c1 [tris(méthyl-3 phényl)phosphine]			3,3		
c1cnccn1 [Pyrazine]	0,65			0,65	0,65
c1ccc(P(c2ccccc2)c2ccccc2)cc1 [triphénylphosphine]			2,73		
Cc1ccnc(C)c1 [Diméthyl-2,4 Pyridine]	6,99	6,99		6,99	6,99
Cc1ccncc1C [Diméthyl-3,4 Pyridine]	6,57	6,57			
Cc1ccncc1 [Gamma Picoline]	6,02				
